The source of these data is a melting point compilation (Tetko et al.; mined from patent text by program, amines drawn as free bases though some values may be those of a salt).

What is called melting point is the temperature, or range, at which the solid turns liquid. `CN(Cc1ccc(-c2ccc(N3C[C@H](Cn4ccnn4)OC3=O)cc2F)cn1)CC(O)CO` (some centres undefined) showed a melting point of 123 °C.
Turning to `CC(C)c1cc(C(C)C)c(CC(=O)NS(=O)(=O)Oc2c(C(C)C)cc(C=CC#N)cc2C(C)C)c(C(C)C)c1`, the melting point is 157 to 160 °C.
As for `COc1cccc(C2OCCC(C)(C)C2(O)C(C)C)c1` (centres undefined), the melting point lay in the range of 56 to 56.9 °C.
For the compound `Nc1cnc2cc(Cl)ccc2c1Nc1ccc(F)cc1`, the melting point lay within 198 to 200 °C.
Turning to `CC(C)NCC#CC1(O)c2ccccc2-c2ccccc21`, the melting point lay in the range of 135 to 137 °C.
For `C#CC1(O)CCC2C3CCC4=CCCCC4C3C(=CF)CC21C` (centres undefined), the melting point was in the range of 103 to 104 °C.
Regarding `OCCOc1cc(O)ccc1-c1nc2cnccc2[nH]1`, the melting point was determined as 250 °C.
To `CCOC(=O)c1cc(-c2ccc(OCCO[Si](C)(C)C(C)(C)C)cc2)n(-c2ccc(OC)cc2)n1` belongs 86 to 87 °C; to `CC(C)N(C(=O)n1oc(=O)[nH]c1=O)c1ccc(F)cc1`, 94 to 95 °C; to `Cc1nc2c(s1)C(=O)C(C=O)CC2` (centres undefined), 107 to 108 °C.
In turn, `c1ccc(CCc2nc(COc3ccc(CCCn4ccnc4)cc3)co2)cc1` showed a melting point of 67 to 68 °C.
`CC(C)(C)C(=O)OCOC(=O)[C@H]1[C@@H]2CC[C@@](N)(C(=O)O)[C@@H]21` displayed a melting point of 205 to 206 °C.
To `N=C(N)NCCCCOc1ccc2c(c1)NC(=O)C(CCC(=O)O)C2` (centres undefined) belongs 176 to 177 °C.
To `CCCn1ccnc1C(=O)Cc1ccc([N+](=O)[O-])cc1` belongs 95 to 96 °C.
The figure for `c1ccc(CN2CCN(Cc3cc4ccccc4[nH]3)CC2)cc1` is 157 to 159 °C; for `O=C(O)C1CCCc2c(OCc3ccccc3)cccc21` (centres undefined) it is 145 to 146 °C; for `COc1cc(OCc2ccccc2)cc(Cl)c1Cl` it is 79 to 81 °C.
`N#Cc1ccc(C(=O)Nc2cccc(C(=O)O)c2)cc1` yielded a melting point of 267 °C.
The compound `COc1cccc(S(=O)c2cccc(N)c2C#N)c1` (centres undefined) showed a melting point of 110 to 114 °C.
`COc1ccc(Cn2c(=O)[nH]c3ccc([N+](=O)[O-])cc3c2=O)cc1` registered a melting point of 254 to 256 °C.
Compound `O=C(c1ccc(C2CCCCC2)cc1)N1Cc2cccn2Cc2ccccc21` showed a melting point of 127 to 129 °C.
The figure for `O=S(=O)(c1ccc(Oc2cccc(C(F)(F)F)c2)cc1)c1ccc(Oc2cccc(C(F)(F)F)c2)cc1` is 96.5 to 97.5 °C; for `FC(F)(F)c1ccc(-c2cc(Oc3ccc4cccnc4c3)ncn2)c(Br)c1` it is 185 to 187 °C; for `CN(C)c1ccc(C2CCc3ccccc3O2)cc1` (centres undefined) it is 77 to 78 °C.
As to `C=C(C)Cc1c(C)c(NC(=O)CC(C)(C)C)c(C)c(Cc2ccc(C(C)C)cc2)c1O`, the melting point was in the range of 124 to 125 °C.
With `CCCCCCCC(=O)Nc1ccc2c(C(F)(F)F)cc(=O)oc2c1`, the melting point is 137 °C.
The figure for `COc1cc(S(N)(=O)=O)cnc1N=Nc1cc(OC(C)C)c2ccccc2c1O` is 289 °C.
Compound `Clc1cccc(Cc2ccc(OCCCn3cccn3)c(Cl)c2)c1` registered a melting point of 52.5 °C.
Regarding `CC1=CC(c2ccccc2Cl)C(C(=O)OC(C)C)=C(N)N1` (centres undefined), the melting point was 161 °C.
Compound `O=C1OC(O)c2ccc(Cl)cc21` (centres undefined) came in with a melting point of 108 to 109 °C.
The compound `O=C(O)CCC(=O)c1ccc(NC(=O)CCN2CCC(c3ccccc3)CC2)cc1` displayed a melting point of 237 to 238 °C.
Regarding `CSc1ccc(-c2coc3ccc(-c4nnc(C)o4)cc23)c(Cl)c1`, the melting point is 153 to 154 °C.
With `Nc1c(Br)cc(C(=O)CCC(=O)O)cc1Br`, the melting point was in the range of 200 to 202 °C.
For the compound `CCCCNc1nc2cnnc(Cl)c2cc1C(=O)OCC`, the melting point stood at 127 °C.
In turn, `CCCCCCCCCCCCCCCc1ccc(C=O)c(O)c1` came in with a melting point of 50 to 54 °C.
In turn, `CCN(CC)c1ccc(CN2CCC(NC(=O)Nc3ccccc3CCc3cc(C(C)(C)C)c(O)c(C(C)(C)C)c3)CC2)cc1` yielded a melting point of 138 to 141 °C.
The figure for `CCOC(=O)C1=COc2cc(C(C)=O)ccc2O1` is 122 °C; for `O=C(O)C(=O)c1ccc(OCCOCCOc2ccccc2)cc1` it is 58 to 59 °C; for `Cn1c(=O)c([N+](=O)[O-])c(O)c2ccccc21` it is 193 °C.
The compound `O=C(O)C(CCCCCCCCCCCC(C(=O)O)C1CC1)C1CC1` (centres undefined) had a melting point of 115 to 118 °C.
`CN(C)c1nc2cc(N)ccn2n1` registered a melting point of 236 to 238 °C.
`Cc1ccc(-c2nc3ccccc3nc2-c2ccc(C)cc2)cc1` displayed a melting point of 149 °C.
Regarding `CC(OC(=O)c1ccc(C(=O)O)cc1)c1ccc2c(c1)C(C)(C)CCC2(C)C` (single isomer, unassigned; (-)), the melting point came to 138 °C.
Consider `CC(C)(C)C(=O)Oc1nc2c(N)ncnc2n1Cc1ccccc1`, for which the melting point was in the range of 202 to 204 °C.
`Cc1cccc(C)c1C(=O)Oc1cc([N+](=O)[O-])cc([N+](=O)[O-])c1O` gave a melting point of 163 to 165 °C.
The figure for `CC(C)(C(N)=O)c1cn2nc(Cl)ccc2n1` is 194 to 195 °C; for `CN(C)c1ccc(-c2nc(Cl)c(CC(N)=O)n2Cc2ccccc2)cc1` it is 215 to 216 °C.
In the case of `COc1c(-c2ccc3cc(NS(C)(=O)=O)ccc3c2)cc(N2CCNC2=O)cc1C(C)(C)C`, the melting point was 284 to 286 °C.
Consider `CCOC(=O)c1cnc2ccc(C#N)cc2c1O`, for which the melting point was over 265 °C.
For `CCN(CC)c1ccc(C(=O)OC)nc1`, the melting point is 52 to 53.5 °C.
Compound `CN(Cc1ccc(NC(=O)C2=Cc3cc(-c4ccc(OCC(N)=O)cc4)ccc3S(=O)(=O)CC2)cc1)C1CCOCC1` came in with a melting point of 240 to 243 °C.
With `CCOC(=O)C=Cc1ccc(CCc2nc(-c3ccccc3)c(C)s2)cc1`, the melting point was in the range of 69 to 70 °C.
The compound `CN(C)Cc1ccccc1-c1ccc(C(=O)N2Cc3ccc(C(=O)NCc4cccnc4)n3Cc3ccccc32)cc1` gave a melting point of 95 to 104 °C.
As for `COC(=O)C1=C(C)CN(c2ccccc2)C1=O`, the melting point was 143 to 145 °C.
The compound `Nc1sc(-c2ccc(Cl)s2)c(CN(C2CCCCC2)C2CCCCC2)c1C(=O)c1ccc(Cl)cc1` displayed a melting point of 195 to 197 °C.
To `N#CCSc1nc(NCc2ccc3c(c2)OCO3)cc(-c2ccccc2)n1` belongs 140 to 142 °C; to `CCOn1c(SC)n[nH]c1=O`, 99 °C.
The figure for `CCCC1(C)OC(=O)C(c2ccc(F)c(F)c2)=C1c1ccc(S(C)(=O)=O)cc1` (centres undefined) is 89 to 90 °C; for `Cn1cc(-c2ccc3nc(NC(=O)c4ccc(C(C)(C)C)nc4)cn3c2)cn1` it is 228 to 230 °C; for `CCCCCCOCCCCCCCCCCCSCCCO` it is 27 to 29 °C.
For `Nc1ncccc1OCc1ccccc1F`, the melting point fell in the range of 85 to 86 °C.
The compound `O=C(c1ccc(C(F)(F)F)cc1)N1Cc2c(-c3ccc(F)cc3)ncn2-c2ccccc21` displayed a melting point of 211 to 212 °C.
To `CCOC(=O)c1c(CC(=O)O)n(-c2ccc(OC(F)(F)F)cc2)c2ccc(Oc3ncccc3C(N)=O)cc12` belongs 128 to 130 °C; to `O=C(CN1c2nc(-c3ccncc3)cc(=O)n2CCC12CC2)c1ccccc1`, 232 to 234 °C; to `O=C(CC(C(=O)O)C1CCCCC1)Nc1cccc(/C=C/c2nc(C3CCC3)cs2)c1` (centres undefined), 205 to 207 °C.
The figure for `CN(c1cccc2cc(C3=NCC(CN4CCS(=O)CC4)S3)[nH]c12)S(=O)(=O)c1nccn1C` (centres undefined) is 161 to 162 °C; for `C=CCOc1ccc2c(=O)c(C)c(-c3ccccc3)oc2c1C(=O)C=Cc1cc(OC)c(OC)c(OC)c1` it is 121 to 123 °C.
As for `CS(=O)(=O)NCCCCn1c(CO)nc2c(N)nc3ccccc3c21`, the melting point was 216 to 219 °C.
`Cc1coc2c1C(C)(O)C1=C(CCCC1C)C2=O` (centres undefined) had a melting point of 139 to 141 °C.
`Cc1cc(Cc2ccccc2)c(NCc2ccccn2)c(=O)n1CC(=O)O` returned a melting point of 63 °C.
For the compound `O=C(O)CCCCN(C1CCNCC1)S(=O)(=O)c1ccccc1`, the melting point was 115 to 120 °C.
The compound `CCOC(=O)c1nnc(-c2ccc(OCC)cc2)o1` came in with a melting point of 93 °C.
The figure for `O=C(CBr)Nc1ccccc1C(=O)O` is 165 to 168 °C; for `COc1cccc2c(CN3CC=C(CCc4ccccc4)CC3)c[nH]c12` it is 131 to 133 °C; for `COC(=O)Cc1nc(-c2ccccc2)c2cc(Cl)ccc2n1` it is 122 to 123 °C.
The compound `CC1CNc2c(C#N)cnn2C1c1cc(Cl)ccc1Cl` (centres undefined) gave a melting point of 184 to 185 °C.
With `CN(C)Cc1cc(-c2ccccc2)c(O)c(-c2ccccc2)c1`, the melting point was in the range of 136 to 137 °C.
`Cn1cc(CC(=O)O)c(OCCCc2cn(-c3ccc(C(F)(F)F)cn3)nc2C2CCCCC2)n1` returned a melting point of 157 to 158 °C.
Regarding `CCCc1c(OCCCOc2ccccc2)ccc2c1OC(CCC(=O)O)(CCC(=O)O)CC2=O`, the melting point amounted to 162 °C.
With `CSc1c(F)ccc2onc(OCCNC(=O)OC(C)(C)C)c12`, the melting point fell in the range of 91 to 92 °C.
`Cc1nc(-n2ccc(OCc3ccccc3)cc2=O)sc1C(=O)NCc1ccc(F)c(F)c1`: the melting point was in the range of 225 to 227 °C.
The compound `Cc1nnc2n1-c1ccc(Cl)cc1C(c1ccccc1F)=CC2` yielded a melting point of 223 to 225 °C.
The compound `CNC(=O)c1cc(C(=O)c2ccccc2)ccc1[N+](=O)[O-]` came in with a melting point of 138 °C.
To `Cc1nnc(-c2ccc3occ(-c4ccc(S(C)=O)cc4)c3n2)o1` (centres undefined) belongs 219 to 220 °C; to `CC(=O)CC(=O)NC1CC1`, 65 to 66 °C.
The compound `CC1(C)c2ccc(CCN3CCN(c4nsc5ccccc45)CC3)cc2C(C)(C)C1O` (centres undefined) yielded a melting point of 47 to 49 °C.
In turn, `Cn1c(Oc2cccc(N=C=S)c2)nc2ccccc21` displayed a melting point of 121 to 124 °C.
To `CCOC(=O)c1ncc2[nH]c3c(Br)cc(Br)cc3c2c1COC` belongs 98 to 99 °C; to `COc1cc(OC)n2nc(S(=O)(=O)Nc3c(Cl)cccc3Cl)nc2c1`, 252 to 253 °C.
